The text below walks through data of patent US10233177B2, “TRPV1 vanilloid receptor antagonists with a bicyclic portion” (Serentrix LLC, priority 2010, dated 2019).

pIC50: −log10 of the molar value. Like-named read-outs stand apart in the source and are kept apart here.

For one assay, the target named is TRPV1 (Rattus norvegicus (Rat), UniProt O35433). Put plainly: Ca2+ fluorescence measurements in cultured rat dorsal root ganglia neurons (capsaicin-induced calcium uptake). Format: cell-based. Particulars: rat DRG neurons; for inhibition at 0.3 µM: DRG neuron.
Sequence of TRPV1 (O35433 whole entry): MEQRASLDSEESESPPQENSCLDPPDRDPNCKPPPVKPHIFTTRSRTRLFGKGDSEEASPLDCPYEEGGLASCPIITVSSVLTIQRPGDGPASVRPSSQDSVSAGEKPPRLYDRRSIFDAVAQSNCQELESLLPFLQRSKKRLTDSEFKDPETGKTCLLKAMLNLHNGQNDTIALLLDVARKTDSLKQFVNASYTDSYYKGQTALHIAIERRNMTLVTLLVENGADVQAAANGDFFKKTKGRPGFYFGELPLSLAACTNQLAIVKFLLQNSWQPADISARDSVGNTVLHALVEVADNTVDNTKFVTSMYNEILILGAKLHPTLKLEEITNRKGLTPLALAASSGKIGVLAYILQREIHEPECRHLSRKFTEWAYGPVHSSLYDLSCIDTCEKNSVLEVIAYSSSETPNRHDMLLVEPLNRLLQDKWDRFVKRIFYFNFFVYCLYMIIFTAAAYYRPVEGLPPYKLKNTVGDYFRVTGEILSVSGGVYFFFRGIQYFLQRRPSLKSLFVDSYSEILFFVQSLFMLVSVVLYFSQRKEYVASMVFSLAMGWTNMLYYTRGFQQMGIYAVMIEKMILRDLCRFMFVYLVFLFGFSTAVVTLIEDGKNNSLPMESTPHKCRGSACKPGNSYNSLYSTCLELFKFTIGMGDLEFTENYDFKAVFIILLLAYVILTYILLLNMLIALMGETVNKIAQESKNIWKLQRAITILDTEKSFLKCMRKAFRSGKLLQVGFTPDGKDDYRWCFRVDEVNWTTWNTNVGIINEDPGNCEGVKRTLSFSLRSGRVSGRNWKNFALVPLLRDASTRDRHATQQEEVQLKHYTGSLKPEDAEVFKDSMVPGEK
Assay [1] concerns CCI-induced mechanical hyperalgesia. Put plainly: CCI-induced mechanical hyperalgesia (Randall-Selitto paw pressure). The assay is classed as in vivo. The note with it: rat CCI, 30 μmol/kg oral. As for the experimental part: CCI-Induced Mechanical Hyperalgesia
Male SD rats (Charles River, Italy) weighing 250 g were anaesthetized with sodium pentobarbital (60 mg/kg, intraperitoneal (i.p.), 0.1 ml/10 g) and, under a dissecting microscope, the right common sciatic nerve was exposed at the level of the mid thigh and, proximal to the trifurcation of the nerve; four ligatures (4/0 chromic silk, Ethicon) were loosely tied around it, at about 0.5 mm spacing, until they elicited a brief twitch in the respective hind, taking care to preserve epineural circulation. Sham-operated animals (sciatic exposure without ligation) were used as controls. 14 days after the surgery, mechanical hyperalgesia was assessed using an analgesimeter (Ugo Basile, Italy, Randall-Selitto analgesic apparatus). This device generated a mechanical force on the affected paw and the nociceptive threshold was defined as the force (in g) at which the rat withdraws the paw (with a cut-off of 450 g). Two baseline measurement values were obtained 75 and 45 min before the actual test. After the second baseline measurement, animals were randomly allocated to the different treatment groups. Paw pressure test was performed 0, 75, 120, 165, 210 and 300 min after the oral administration of the compounds. All tested compounds were orally administrated (30 μmol/kg/10 ml) to rats by gavage.

Assay [2] relates to CFA-induced thermal hyperalgesia. Put plainly: CFA-induced thermal hyperalgesia in rats (Hargreaves' test). Format: in vivo. Particulars: rat, 30 μmol/kg oral; read-out: reversal of CFA-induced thermal hyperalgesia (maximal reversal activity / % of reversion). An excerpt:
CFA-Induced Thermal Hyperalgesia in Rats
This method was used for the determination of acute nociceptive thermal threshold and combines a chemical stimulus and heat for measuring pain sensitivity. Male SD rats (Charles River, Italy) weighing 100 to 250 gr. were used. Anti-hyperalgesic effects were investigated by using the Hargreaves' test. Complete Freund's Adjuvant (CFA; Sigma, USA) was used to induce thermal hyperalgesia. CFA contains killed Mycobacterium tuberculosis and is designed to provide continuous release of antigens necessary for stimulating a strong, persistent immune response. This effect causes the reduction of the hind paw withdrawal response latency induced by heat during the Hargreaves' test. Thermal stimulation was performed 30, 60, 120 and 180 (240 min only if needed) minutes after the oral administration of the antagonists. During the CFA-induced thermal hyperalgesia experiments two different solubilization protocols were used: when items presented an amino group, a pH=2 aqueous solution of HCl and 2.5% Tween80 was used; otherwise molecules were suspended in 0.5% Methocel and 2.5% Tween80. Compounds were orally administrated (30 μmol/kg/10 ml) to rats 24 hours after the CFA treatment. CFA was injected into the plantar surface of a rat's hind paw at a fixed dose of 50 μl by the use of a micro syringe.

The mark [3] stands for this setting: 300 nM, read-out: abolition of capsaicin response at 300 nM.
The mark [4] stands for this setting: Table 1, formula IA-C, 300 nM against calcium uptake induced by 30 nM capsaicin, read-out: % inhibition at 300 nM.
Setting [5] is: capsaicin-induced calcium uptake, read-out: inhibition of the calcium uptake.
[6] abbreviates: Table 1, against capsaicin-evoked [Ca2+]i mobilization, read-out: IC50.
Where [7] appears, read: read-out: IC50 against capsaicin-evoked [Ca2+]i mobilization.

As for `O=C(NCc1ccc(C(F)(F)F)cc1N1CCCCC1)Nc1cccc2[nH]c(=O)[nH]c12` [Example 6, 1-(4-(trifluoromethyl)-2-(piperidin-1-yl)benzyl)-3-(2,3-dihydro-2-oxo-1H-benzo[d]imidazol-4-yl)urea], the inhibition at 0.3 µM was roughly 100% at TRPV1 (setting [3]), 95% at TRPV1 (setting [4]) and greater than 80% at TRPV1 (setting [5]). In addition, the negative logarithm of the IC50 (pIC50) on TRPV1 (setting [6]) and on TRPV1 (setting [7]) was 9.29 each time. Further, in assay [1], the “anti-hyperalgesic activity (in words)” value is “relevant and long lasting anti-hyperalgesic activity”. The “reversal of hyperalgesia within the first 2 hours” value (“reversal” below) in assay [1] was “at least 80%”.
On to `O=C1COc2c(cccc2NC(=O)NCc2ccc(C(F)(F)F)cc2N2CCCCC2)N1` [Example 48, 1-(4-(trifluoromethyl)-2-(piperidin-1-yl)benzyl)-3-(3,4-dihydro-3-oxo-2H-benzo[b][1,4]oxazin-8-yl)urea], for which the inhibition at 0.3 µM was roughly 100% on TRPV1 (setting [3]), 100% at TRPV1 (setting [4]) and greater than 80% on TRPV1 (setting [5]). Also, the pIC50 on TRPV1 (setting [6]) and at TRPV1 (setting [7]) was 9.89 in each case. Moreover, the inhibition in vivo at 30 µmol/kg in assay [2] was determined as 45%.
Consider `O=C(NCc1ccc(Cl)cc1N1CCCCC1)Nc1cccc2[nH]c(=O)[nH]c12` [Example 13, 1-(4-chloro-2-(piperidin-1-yl)benzyl)-3-(2,3-dihydro-2-oxo-1H-benzo[d]imidazol-4-yl)urea], for which the inhibition at 0.3 µM on TRPV1 (setting [3]) was roughly 100%; at TRPV1 (setting [4]), 96%; at TRPV1 (setting [5]) it was greater than 80%. In addition, the pIC50 at TRPV1 (setting [6]) and at TRPV1 (setting [7]) was 8.74 throughout. Further, the “anti-hyperalgesic activity (in words)” value in assay [1] is “relevant and long lasting anti-hyperalgesic activity”. The “reversal” value in assay [1] is “at least 80%”. Also, the inhibition in vivo at 30 µmol/kg in assay [2] came out at 60%.
As to `O=C1COc2c(cccc2NC(=O)NCc2ccc(C(F)(F)F)cc2N2CCCC2)N1` [Example 47, 1-(4-(trifluoromethyl)-2-(pyrrolidin-1-yl)benzyl)-3-(3,4-dihydro-3-oxo-2H-benzo[b][1,4]oxazin-8-yl)urea], the results for the inhibition at 0.3 µM at TRPV1 (setting [3]), at TRPV1 (setting [4]) and on TRPV1 (setting [5]) were roughly 100%, 100% and greater than 80%, respectively. Further, the pIC50 on TRPV1 (setting [6]) and on TRPV1 (setting [7]) was 9.15 throughout. Also, in assay [2], the inhibition in vivo at 30 µmol/kg worked out at 46%.
As to `O=C(NCc1ccc(C(F)(F)F)o1)Nc1cccc2[nH]c(=O)[nH]c12` [Example 23, 1-(5-(trifluoromethyl-furan-2-yl)-methyl)-3-(2,3-dihydro-2-oxo-1H-benzo[d]imidazol-4-yl)urea], the inhibition at 0.3 µM is 82% at TRPV1 (setting [4]) and greater than 80% at TRPV1 (setting [5]). Also, the negative logarithm of the IC50 (pIC50) (usually −log10 of the IC50, conventionally taken in molar units) at TRPV1 (setting [6]) was 6.97. Also, in assay [2], the inhibition in vivo at 30 µmol/kg was found to be 46%.
Take `O=C(NCc1ccc(C(F)(F)F)cc1)Nc1cccc2[nH]c(=O)[nH]c12` [Example 1, 1-(4-(trifluoromethyl)benzyl)-3-(2,3-dihydro-2-oxo-1H-benzo[d]imidazol-4-yl)urea]: the inhibition at 0.3 µM on TRPV1 (setting [4]) amounted to 84%. At TRPV1 (setting [5]), the inhibition at 0.3 µM is greater than 80%. Moreover, in assay [1], the “anti-hyperalgesic activity (in words)” value was “relevant and long lasting anti-hyperalgesic activity”; the “reversal” value was “at least 80%”.
For the compound `O=C(NCc1ccc(C(F)(F)F)cc1)Nc1cccc2oc(=O)[nH]c12` [Example 24, 1-(4-(trifluoromethyl)benzyl)-3-(2,3-dihydro-2-oxobenzo[d]oxazol-4-yl)urea], the inhibition at 0.3 µM on TRPV1 (setting [4]) stood at 40%.
As to `CN(C)c1nc(C(F)(F)F)ccc1CNC(=O)Nc1cccc2c1OCC(=O)N2` [Example 86, 1-[[2-dimethylamino-6-(trifluoromethyl)-3-pyridyl]methyl]-3-(3-oxo-4H-1,4-benzoxazin-8-yl)urea], the results for the inhibition at 0.3 µM at TRPV1 (setting [3]), at TRPV1 (setting [4]) and on TRPV1 (setting [5]) were roughly 100%, 100% and greater than 80%, respectively. Further, the pIC50 on TRPV1 (setting [6]) is 7.77.
As for `O=C1COc2cccc(NC(=O)NCc3ccc(C(F)(F)F)cc3N3CCCC3)c2N1` [Example 43, 1-(4-(trifluoromethyl)-2-(pyrrolidin-1-yl)benzyl)-3-(3,4-dihydro-3-oxo-2H-benzo[b][1,4]oxazin-5-yl)urea], on TRPV1 (setting [4]), the inhibition at 0.3 µM was determined as 23%.
Turning to `CC(C)(C)c1ccc(CNC(=O)Nc2cccc3c2OCC(=O)N3)cc1` [Example 89, 1-[(4-tert-butylphenyl)methyl]-3-(3-oxo-4H-1,4-benzoxazin-8-yl)urea], the values for the inhibition at 0.3 µM at TRPV1 (setting [4]) and at TRPV1 (setting [5]) were 92% and greater than 80%, respectively. The pIC50 on TRPV1 (setting [6]) is 7.70.
As for `O=C(NCc1ccc(C(F)(F)F)cc1Cl)Nc1cccc2[nH]c(=O)[nH]c12` [Example 3, 1-(2-chloro-4-(trifluoromethyl)benzyl)-3-(2,3-dihydro-2-oxo-1H-benzo[d]imidazol-4-yl)urea], the inhibition at 0.3 µM on TRPV1 (setting [4]) is 93%; on TRPV1 (setting [5]), greater than 80%.
As for `CC(C)(C)c1ccc(CNC(=O)Nc2cccc3[nH]c(=O)[nH]c23)c(N2CCCC2)c1` [Example 75, 1-[(4-tert-butyl-2-pyrrolidin-1-yl-phenyl)methyl]-3-(2-oxo-1,3-dihydrobenzimidazol-4-yl)urea], the inhibition at 0.3 µM at TRPV1 (setting [3]) is roughly 100%; on TRPV1 (setting [4]) it was 100%; on TRPV1 (setting [5]), greater than 80%. In addition, the pIC50 at TRPV1 (setting [6]) and on TRPV1 (setting [7]) was 9.08 throughout.
Turning to `O=C(NCc1ccc(F)cc1C(F)(F)F)Nc1cccc2oc(=O)[nH]c12` [Example 27, 1-(4-fluoro-2-(trifluoromethyl)benzyl)-3-(2,3-dihydro-2-oxobenzo[d]oxazol-4-yl)urea], at TRPV1 (setting [4]), the inhibition at 0.3 µM was found to be 45%.
`CN(C)c1cc(C(F)(F)F)ccc1CNC(=O)Nc1cccc2oc(=O)[nH]c12` [Example 29, 1-(2-(dimethylamino)-4-(trifluoromethyl)benzyl)-3-(2,3-dihydro-2-oxobenzo[d]oxazol-4-yl)urea]: the inhibition at 0.3 µM at TRPV1 (setting [4]) is 8%.
For `O=C(NCc1ccc(C(F)(F)F)cc1Cl)Nc1cccc2oc(=O)[nH]c12` [Example 26, 1-(2-chloro-4-(trifluoromethyl)benzyl)-3-(2,3-dihydro-2-oxobenzo[d]oxazol-4-yl)urea], on TRPV1 (setting [4]), the inhibition at 0.3 µM was determined as 55%.
For the compound `CN(C)CCOc1nc(C(F)(F)F)ccc1CNC(=O)Nc1cccc2c1OCC(=O)N2` [Example 91, 1-[[2-(2-dimethylaminoethoxy)-6-(trifluoromethyl)-3-pyridyl]methyl]-3-(3-oxo-4H-1,4-benzoxazin-8-yl)urea], on TRPV1 (setting [4]), the inhibition at 0.3 µM is 40%.
`CN(C)c1cc(C(F)(F)F)ccc1CNC(=O)Nc1cccc2[nH]c(=O)[nH]c12` [Example 4, 1-(2-(dimethylamino)-4-(trifluoromethyl)benzyl)-3-(2,3-dihydro-2-oxo-1H-benzo[d]imidazol-4-yl)urea]: the inhibition at 0.3 µM at TRPV1 (setting [3]) was roughly 100%; on TRPV1 (setting [4]), 100%; at TRPV1 (setting [5]), greater than 80%. The pIC50 on TRPV1 (setting [6]) and at TRPV1 (setting [7]) was 8.39 each time.
Turning to `COc1nc(C(F)(F)F)ccc1CNC(=O)Nc1cccc2c1OCC(=O)N2` [Example 82, 1-[[2-methoxy-6-(trifluoromethyl)-3-pyridyl]methyl]-3-(3-oxo-4H-1,4-benzoxazin-8-yl)urea], the inhibition at 0.3 µM was 90% on TRPV1 (setting [4]) and greater than 80% at TRPV1 (setting [5]). Moreover, at TRPV1 (setting [6]), the pIC50 was 7.27.
For `O=C(NCc1ccc(Cl)cc1)Nc1cccc2[nH]c(=O)[nH]c12` [Example 10, 1-(4-chlorobenzyl)-3-(2,3-dihydro-2-oxo-1H-benzo[d]imidazol-4-yl)urea], the inhibition at 0.3 µM is 89% on TRPV1 (setting [4]) and greater than 80% on TRPV1 (setting [5]). Also, the pIC50 at TRPV1 (setting [6]) was 7.10.
Take `O=C1COc2cccc(NC(=O)NCc3ccc(C(F)(F)F)cc3N3CCCCC3)c2N1` [Example 44, 1-(4-(trifluoromethyl)-2-(piperidin-1-yl)benzyl)-3-(3,4-dihydro-3-oxo-2H-benzo[b][1,4]oxazin-5-yl)urea]: on TRPV1 (setting [4]), the inhibition at 0.3 µM came out at 47%.
